Measurements as given in US9107900B2, “Use of dronedarone for the preparation of a medicament for use in the prevention of cardiovascular hospitalization or of morality” (SANOFI, priority 2008, dated 2015).
Structures can show the parent of a compound that is named as a salt.

Test system: patients having a history of atrial fibrillation or atrial flutter
Assay: prospective, multinational, multicentre, double-blind clinical study versus placebo: cardiovascular hospitalizations and mortality
Format: in vivo, human
Conditions: for HR (95% CI): cardiovascular hospitalization and death / decrease of cardiovascular hospitalization and death: vs placebo
Experimental: The patients had to have a history of atrial fibrillation or flutter and/or could be in normal sinus rhythm or in atrial fibrillation or flutter at inclusion.
The patient recruitment was carried out by taking into account the following inclusion criteria:
• 1) One of the following risk factors had to be present: • age equal to or greater than 70 years, • hypertension (taking antihypertensives of at least two different classes), • diabetes, • history of cerebral stroke (transient ischemic event or completed cerebral stroke) or of systemic embolism, • left atrial diameter greater than or equal to 50 mm measured by echocardiography, • left ventricular ejection fraction less than 40%, measured by two-dimensional echography; or • age equal to or above 70, or even above 75, possibly combined with at least one of the risk factors below: • hypertension (taking antihypertensives of at least two different classes), • diabetes, • history of cerebral stroke (transient ischemic event or completed cerebral stroke) or of systemic embolism, • left atrial diameter greater than or equal to 50 mm measured by echocardiography, • left ventricular ejection fraction less than 40%, measured by two-dimensional echography; • 2) availability of an electrocardiogram carried out during the past 6 months in order to document the presence or the history of atrial fibrillation or flutter; • 3) availability of an electrocardiogram carried out during the past 6 months in order to document the presence or absence of normal sinus rhythm. […] Criteria Related to a Cardiac Condition: • Patients in permanent atrial fibrillation • Patients in unstable hemodynamic condition such as acute pulmonary edema within 12 hours prior to start of study medication; cardiogenic shock; treatment with IV pressor agents; patients on respirator; congestive heart failure of stage NYHA IV within the last 4 weeks; uncorrected, hemodynamically significant primary obstructive valvular disease; hemodynamically significant obstructive cardomyopathy; a cardiac operation or revascularization procedure within 4 weeks preceding randomization • Planned major non-cardiac or cardiac surgery or procedures including surgery for valvular heart disease, coronary artery bypass graft (CABG), percutaneous coronary intervention (PCI), or on urgent cardiac transplantation list • Acute myocarditis or constrictive pericarditis • Bradycardia<50 bpm and/or PR-interval>0.28 sec on the last 12-lead ECG. • Significant sinus node disease (documented pause of 3 seconds or more) or 2nd or 3rd degree atrioventricular block (AV-block) unless treated with a pacemaker. Criteria Related to Concomitant Medications:
Need of a concomitant medication that is prohibited in this trial, including the requirement for Vaughan Williams Class I and III anti-arrhythmic drugs, that would preclude the use of study drug during the planned study period, i.e. patients have to stop others antiarrhythmics such as Vaughan Williams Class I and III anti-arrhythmic drugs, for example amiodarone, flecamide, propafenone, quinidine, disopyramide, dofetilide, solatol.
• Plasma potassium<3.5 mmol/l (as anti-arrhythmic drugs can be arrhythmogenic in patients with hypokalemia, this must be corrected prior to randomization. • A calculated GFR at baseline<10 ml/min using the Cockroft Gault formula (GFR [ml/min]=(140−AGE [years]*WEIGHT [kilograms]*CONSTANT/CREATININE [μmol/L], where CONSTANT is […]).
Furthermore, the concomitant use of grapefruit juice and all potent inhibitors of CYP3A4 such as ketoconazole were prohibited.
Treatment was initiated using tablets containing either the placebo or an amount of dronedarone hydrochloride corresponding to 400 mg of dronedarone at a rate of twice a day with the morning and evening meal and more specifically at a rate of one tablet in the morning during or shortly after breakfast and one tablet in the evening during or shortly after dinner. […]

[1] = III.30 cardiovascular hospitalization, Dronedarone N = 2301
[2] = III.31 hospitalization not due to supraventricular arrhythmia, Dronedarone N = 2301

CCCCc1oc2ccc(NS(C)(=O)=O)cc2c1C(=O)c1ccc(OCCCN(CCCC)CCCC)cc1 [dronedarone hydrochloride, 2-n-Butyl-3-[4-(3-di-n-butylaminopropoxy)benzoyl]-5-methylsulphonamidobenzofuran]
HR (95% CI): cardiovascular hospitalization and death (Age ≧75 years (N 1925)): 0.75 (0.65, 0.87) | decrease of cardiovascular hospitalization and death (Age ≧75 years): 25% | HR (95% CI): cardiovascular hospitalization and death (Diabetes (N 945)): 0.75 (0.61, 0.91) | decrease of cardiovascular hospitalization and death (Diabetes): 25% | HR (95% CI): cardiovascular hospitalization and death (Hypertension (N 3995)): 0.77 (0.69, 0.85) | decrease of cardiovascular hospitalization and death (Hypertension): 23% | Any cardiovascular hospitalization, number [1]: 675 | Any cardiovascular hospitalization, percent [1]: (29.3%) | Atherosclerosis related (if not otherwise specified), number [1]: 11 | Atherosclerosis related (if not otherwise specified), percent [1]: (0.5%) | Atrial fibrillation and other supraventricular rhythm disorders, number [1]: 296 | Atrial fibrillation and other supraventricular rhythm disorders, percent [1]: (12.9%) | Blood pressure related (hypotension, hypertension; except syncope), number [1]: 21 | Blood pressure related (hypotension, hypertension; except syncope), percent [1]: (0.9%) | Cardiovascular infection, number [1]: 4 | Cardiovascular infection, percent [1]: (0.2%) | Cardiovascular surgery except cardiac transplantation, number [1]: 21 | Cardiovascular surgery except cardiac transplantation, percent [1]: (0.9%) | Implantation of a pacemaker, ICD or any other cardiac device, number [1]: 32 | Implantation of a pacemaker, ICD or any other cardiac device, percent [1]: (1.4%) | Major bleeding (requiring two or more units of blood or any intracranial hemorrhage), number [1]: 21 | Major bleeding (requiring two or more units of blood or any intracranial hemorrhage), percent [1]: (0.9%) | Myocardial infarction or unstable angina, number [1]: 48 | Myocardial infarction or unstable angina, percent [1]: (2.1%) | Non-fatal cardiac arrest, number [1]: 3 | Non-fatal cardiac arrest, percent [1]: (0.1%) | Other ventricular arrhythmia, number [1]: 1 | Other ventricular arrhythmia, percent [1]: (<0.1%) | Pulmonary embolism or deep vein thrombosis, number [1]: 10 | Pulmonary embolism or deep vein thrombosis, percent [1]: (0.4%) | Stable angina pectoris or atypical chest pain, number [1]: 45 | Stable angina pectoris or atypical chest pain, percent [1]: (2.0%) | Syncope, number [1]: 21 | Syncope, percent [1]: (0.9%) | TIA or stroke (except intracranial hemorrhage), number [1]: 28 | TIA or stroke (except intracranial hemorrhage), percent [1]: (1.2%) | Transcutaneous coronary, cerebrovascular or peripheral procedure, number [1]: 27 | Transcutaneous coronary, cerebrovascular or peripheral procedure, percent [1]: (1.2%) | Ventricular extrasystoles, number [1]: 1 | Ventricular extrasystoles, percent [1]: (<0.1%) | Ventricular fibrillation, number [1]: 1 | Ventricular fibrillation, percent [1]: (<0.1%) | Ventricular tachycardia (non-sustained and sustained), number [1]: 6 | Ventricular tachycardia (non-sustained and sustained), percent [1]: (0.3%) | Worsening heart failure, including pulmonary edema or dyspnea of cardiac origin, number [1]: 78 | Worsening heart failure, including pulmonary edema or dyspnea of cardiac origin, percent [1]: (3.4%) | Any non-AF cardiovascular hospitalization, number [2]: 438 | Any non-AF cardiovascular hospitalization, percent [2]: (19.0%) | Atherosclerosis related (if not otherwise specified), number [2]: 11 | Atherosclerosis related (if not otherwise specified), percent [2]: (0.5%) | Blood pressure (hypotension, hypertension, not syncope), number [2]: 25 | Blood pressure (hypotension, hypertension, not syncope), percent [2]: (1.1%) | Cardiovascular infection, number [2]: 4 | Cardiovascular infection, percent [2]: (0.2%) | Cardiovascular surgery except cardiac transplantation, number [2]: 24 | Cardiovascular surgery except cardiac transplantation, percent [2]: (1.0%) | Implantation of a pacemaker, ICD or any other cardiac device, number [2]: 46 | Implantation of a pacemaker, ICD or any other cardiac device, percent [2]: (2.0%) | Major bleeding (requiring two or more units of blood or any intracranial hemorrhage), number [2]: 27 | Major bleeding (requiring two or more units of blood or any intracranial hemorrhage), percent [2]: (1.2%) | Myocardial infarction or unstable angina, number [2]: 52 | Myocardial infarction or unstable angina, percent [2]: (2.3%) | Non-fatal cardiac arrest, number [2]: 3 | Non-fatal cardiac arrest, percent [2]: (0.1%) | Other ventricular arrhythmia, number [2]: 1 | Other ventricular arrhythmia, percent [2]: (<0.1) % | Pulmonary embolism or deep vein thrombosis, number [2]: 11 | Pulmonary embolism or deep vein thrombosis, percent [2]: (0.5%) | Stable angina pectoris or atypical chest pain, number [2]: 51 | Stable angina pectoris or atypical chest pain, percent [2]: (2.2%) | Syncope, number [2]: 23 | Syncope, percent [2]: (1.0%) | TIA or stroke (except intracranial hemorrhage), number [2]: 32 | TIA or stroke (except intracranial hemorrhage), percent [2]: (1.4%) | Transcutaneous coronary, cerebrovascular or peripheral procedure, number [2]: 31 | Transcutaneous coronary, cerebrovascular or peripheral procedure, percent [2]: (1.3%) | Ventricular extrasystoles, number [2]: 1 | Ventricular extrasystoles, percent [2]: (<0.1) % | Ventricular fibrillation, number [2]: 1 | Ventricular fibrillation, percent [2]: (<0.1) % | Ventricular tachycardia (non-sustained and sustained), number [2]: 6 | Ventricular tachycardia (non-sustained and sustained), percent [2]: (0.3%) | Worsening heart failure, including pulmonary edema or dyspnea of cardiac origin, number [2]: 89 | Worsening heart failure, including pulmonary edema or dyspnea of cardiac origin, percent [2]: (3.9%) | HR (95% CI): cardiovascular hospitalization and death (LVEF <0.40 (N 338)): 0.72 (0.51, 1.00) | decrease of cardiovascular hospitalization and death (LVEF <0.40): 28%
